Assay results as given in US20090239836A1, “Multifunctional Ophthalmic Compositions” (priority 2008, published 2009).

Test: Solubility of compound having Formula V in various media
Assay type: physicochemical
From the text: For example, the solubility of the compound having Formula V in some embodiments of the present composition is compared to that in water in Table 1.

solubility (Medium: Water, pH 7): 0.2 µg/mL | solubility (aqueous with cosolvent or surfactant or cyclodextrin, Medium: 1% Polysorbate 80): 12 µg/mL | solubility (aqueous with cosolvent or surfactant or cyclodextrin, Medium: 10% PEG-400/1% polysorbate 80 (a composition of the present invention)): 12 µg/mL | solubility (aqueous with cosolvent or surfactant or cyclodextrin, Medium: 25% PEG-40/1% polysorbate 80 (a composition of the present invention)): 18 µg/mL | solubility (organic solvent or mixture, Medium: PEG-400): 5.6 µg/mL
SMILES: Cc1ccc2c(NCC(O)(CC(C)(C)c3cc(F)cc4c3OCC4)C(F)(F)F)cccc2n1 (centres unmarked) [Compound Having Formula V]
